# Values of other authors, collected in US10105334B2, “Particle formulations of all-trans retinoic acid and transforming growth factor beta for the treatment of type 1 diabetes mellitus” (University of Pittsburgh—Of the Commonwealth System of …, priority 2014, dated 2018).
# Settings: Tsang et al., Cytokine 7:389-97 (1995)
substance,measurement,value
TGFβ: growth factor and immunomodulatory cytokine,ED50 (physiologically-active concentration),0.04-0.2 ng/mL
